The test system of one data set is BT-474. Description: Growth inhibition of human BT474 cells overexpressing HER2 gene after 5 days. The note with it: BT-474, 120 h. In kind it is functional.
Data set [1] is described as follows: Metabolic stability in mouse liver microsomes at 1 umol/L after 20 mins by HPLC analysis. The note with it: read-out: Stability. In kind it is ADME, Microsome. In general terms: Liver microsomes are vesicles of endoplasmic reticulum, rich in cytochrome P450 enzymes.
In another data set the target is CYP3A4 (Homo sapiens, UniProt P08684). As to the kind of experiment: Inhibition of CYP3A4 at 10 uM after 15 mins. In kind it is ADME.
Data set [2] concerns the target Epidermal growth factor receptor (Homo sapiens, UniProt P00533). Description: Inhibition of N-terminus peptide-tagged human recombinant EGFR expressed using baculovirus infection system using [gamma-33P]-ATP preincubated with compound for 5 mins measured after 10 mins by scintillation counting.
A short description of data set [3]: Metabolic stability in human liver microsomes at 1 umol/L after 20 mins by HPLC analysis. The note with it: read-out: Stability. The data set is classed as ADME, Microsome.
In data set [4] the target is T1, Receptor tyrosine-protein kinase erbB-2 (Homo sapiens, UniProt P04626). As to the kind of experiment: Inhibition of N-terminus peptide-tagged human recombinant HER2 expressed using baculovirus infection system using [gamma-33P]-ATP preincubated with compound for 5 mins measured after 10 mins by scintillation counting.
The target in data set [5] is T1, Receptor tyrosine-protein kinase erbB-2. As to the kind of experiment: Pseudo-irreversible inhibition of N-terminus peptide-tagged human recombinant HER2 expressed using baculovirus infection system using [gamma-33P]-ATP preincubated with compound for 5 mins at 10 times IC50 concentration measured after 10 mins by scintillation counting.

The source made the active and inactive calls. No cut-off for these calls is given here.

A word on the GI50: it is the concentration giving 50% growth inhibition. For orientation: inhibition means the change of the read-out against control, counted positive when it falls. Usually IC50 stands for the concentration that inhibits the measured activity by half.

CYP3A4, sequence (P08684 whole entry): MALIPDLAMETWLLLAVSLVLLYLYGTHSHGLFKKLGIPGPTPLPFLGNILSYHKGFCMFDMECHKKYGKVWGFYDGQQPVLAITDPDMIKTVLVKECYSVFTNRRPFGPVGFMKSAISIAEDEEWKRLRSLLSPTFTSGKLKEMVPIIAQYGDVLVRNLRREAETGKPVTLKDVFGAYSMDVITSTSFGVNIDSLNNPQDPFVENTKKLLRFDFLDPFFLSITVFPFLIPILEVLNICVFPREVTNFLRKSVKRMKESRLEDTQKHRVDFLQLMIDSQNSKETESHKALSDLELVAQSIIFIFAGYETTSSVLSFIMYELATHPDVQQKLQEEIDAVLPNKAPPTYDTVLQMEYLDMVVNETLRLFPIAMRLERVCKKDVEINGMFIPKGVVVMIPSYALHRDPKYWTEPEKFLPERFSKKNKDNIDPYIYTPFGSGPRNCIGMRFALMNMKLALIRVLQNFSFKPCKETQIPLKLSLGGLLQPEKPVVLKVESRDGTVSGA
T1 sequence (P04626 whole entry): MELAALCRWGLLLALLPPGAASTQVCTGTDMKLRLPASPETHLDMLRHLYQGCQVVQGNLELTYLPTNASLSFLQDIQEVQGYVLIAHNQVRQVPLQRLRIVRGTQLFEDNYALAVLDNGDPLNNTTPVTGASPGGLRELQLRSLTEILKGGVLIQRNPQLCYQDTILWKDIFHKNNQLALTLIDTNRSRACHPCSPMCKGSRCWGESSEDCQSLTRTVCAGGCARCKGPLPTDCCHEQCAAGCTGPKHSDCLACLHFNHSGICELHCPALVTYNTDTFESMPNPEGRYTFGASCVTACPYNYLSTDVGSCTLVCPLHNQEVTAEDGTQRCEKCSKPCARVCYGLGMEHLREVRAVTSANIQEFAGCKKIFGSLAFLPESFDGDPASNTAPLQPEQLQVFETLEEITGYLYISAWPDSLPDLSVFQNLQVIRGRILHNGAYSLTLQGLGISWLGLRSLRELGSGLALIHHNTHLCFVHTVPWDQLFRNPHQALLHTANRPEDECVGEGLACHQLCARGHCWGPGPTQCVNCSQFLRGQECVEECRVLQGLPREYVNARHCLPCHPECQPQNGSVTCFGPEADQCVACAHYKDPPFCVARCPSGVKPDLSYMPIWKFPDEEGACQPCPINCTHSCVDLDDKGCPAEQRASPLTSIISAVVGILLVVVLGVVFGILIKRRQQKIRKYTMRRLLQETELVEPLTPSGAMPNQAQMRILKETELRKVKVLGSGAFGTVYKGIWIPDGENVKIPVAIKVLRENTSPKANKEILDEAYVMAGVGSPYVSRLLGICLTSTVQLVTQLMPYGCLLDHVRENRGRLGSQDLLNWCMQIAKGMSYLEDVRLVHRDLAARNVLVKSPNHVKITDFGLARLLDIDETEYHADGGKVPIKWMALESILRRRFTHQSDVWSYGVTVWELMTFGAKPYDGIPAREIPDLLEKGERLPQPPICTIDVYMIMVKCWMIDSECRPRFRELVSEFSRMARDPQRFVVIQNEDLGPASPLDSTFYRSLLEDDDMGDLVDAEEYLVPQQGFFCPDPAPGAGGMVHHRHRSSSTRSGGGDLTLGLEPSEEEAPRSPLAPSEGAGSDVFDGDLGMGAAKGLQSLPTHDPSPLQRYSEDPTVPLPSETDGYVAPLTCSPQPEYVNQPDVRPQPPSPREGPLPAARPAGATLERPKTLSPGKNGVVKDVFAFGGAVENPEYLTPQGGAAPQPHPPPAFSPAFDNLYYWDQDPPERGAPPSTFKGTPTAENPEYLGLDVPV
Epidermal growth factor receptor, sequence (P00533 whole entry): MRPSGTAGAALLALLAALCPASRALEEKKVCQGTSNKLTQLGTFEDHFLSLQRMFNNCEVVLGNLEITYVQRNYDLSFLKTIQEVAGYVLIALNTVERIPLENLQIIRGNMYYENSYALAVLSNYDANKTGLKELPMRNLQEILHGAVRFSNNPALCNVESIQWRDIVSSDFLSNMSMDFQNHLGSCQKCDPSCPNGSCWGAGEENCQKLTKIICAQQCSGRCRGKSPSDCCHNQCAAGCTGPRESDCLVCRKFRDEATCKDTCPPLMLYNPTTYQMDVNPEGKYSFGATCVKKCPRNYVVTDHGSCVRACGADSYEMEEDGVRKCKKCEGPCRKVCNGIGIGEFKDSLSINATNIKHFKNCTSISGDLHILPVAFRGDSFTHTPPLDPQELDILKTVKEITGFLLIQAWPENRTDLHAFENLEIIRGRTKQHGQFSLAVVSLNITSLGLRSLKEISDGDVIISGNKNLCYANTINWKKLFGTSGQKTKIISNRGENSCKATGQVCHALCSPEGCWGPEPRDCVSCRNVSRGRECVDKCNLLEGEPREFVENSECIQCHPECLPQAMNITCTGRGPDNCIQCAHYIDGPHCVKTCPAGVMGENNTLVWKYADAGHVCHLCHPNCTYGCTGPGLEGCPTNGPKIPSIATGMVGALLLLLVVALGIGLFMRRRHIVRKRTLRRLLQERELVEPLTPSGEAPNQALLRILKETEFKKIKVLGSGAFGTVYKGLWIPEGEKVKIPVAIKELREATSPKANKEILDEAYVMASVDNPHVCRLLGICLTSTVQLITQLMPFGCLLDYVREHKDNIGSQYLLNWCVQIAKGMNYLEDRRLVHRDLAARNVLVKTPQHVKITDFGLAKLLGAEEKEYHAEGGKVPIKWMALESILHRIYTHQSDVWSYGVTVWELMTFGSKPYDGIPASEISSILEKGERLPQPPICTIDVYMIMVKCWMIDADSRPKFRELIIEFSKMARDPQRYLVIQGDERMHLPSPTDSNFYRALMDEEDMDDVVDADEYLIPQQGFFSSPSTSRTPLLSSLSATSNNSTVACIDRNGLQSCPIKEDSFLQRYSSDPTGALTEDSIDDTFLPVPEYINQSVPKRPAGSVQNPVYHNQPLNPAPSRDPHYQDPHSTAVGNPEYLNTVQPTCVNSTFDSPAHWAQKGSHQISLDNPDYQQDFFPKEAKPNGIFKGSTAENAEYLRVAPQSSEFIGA

In the data set with BT-474, `CC(C)(O)C(=O)NCCn1ccc2ncnc(Nc3ccc(Oc4cccc5sncc45)c(Cl)c3)c21` registered a 50% growth inhibitory concentration (GI50) of 9.4 nM. The microsomal CLint at 1 µM stood at 145 µL/min/mg in data set [1] and 117 µL/min/mg in data set [3]. The inhibition at 0.25 h, 10 µM on CYP3A4 came out at 62.6%. In addition, the IC50 in data set [2] was determined as 7 nM; in data set [4], 2.2 nM.
On to `O=C1NCc2ccc(Oc3ccc(Nc4ncnc5ccn(CCO)c45)cc3Cl)cc21`, for which, in the data set on BT-474, the GI50 amounted to 43 nM. The half-maximal inhibitory concentration (IC50) in data set [2] stood at 7.8 nM; in data set [4], 1.3 nM. Moreover, the inhibition entry in data set [5] is “Active”.
Turning to `O=C1Cc2c(cccc2Oc2ccc(Nc3ncnc4ccn(CCO)c34)cc2Cl)N1`, the GI50 in the data set with BT-474 came out at 13 nM. The figures for the microsomal CLint at 1 µM in data set [1] and in data set [3] were 66 µL/min/mg and 141 µL/min/mg, respectively. Besides, the IC50 was 3 nM in data set [2] and 1.6 nM in data set [4]. The inhibition entry in data set [5] was “Active”.
The compound `CC(=O)NCCn1ccc2ncnc(Nc3ccc(Oc4cccc5sncc45)c(Cl)c3)c21` gave a GI50 in the data set with BT-474 of 4 nM. Further, the microsomal CLint at 1 µM turned out to be 100 µL/min/mg in data set [1] and 133 µL/min/mg in data set [3]. Further, on CYP3A4, the inhibition at 0.25 h, 10 µM is 57%. Also, the concentration for half-maximal inhibition (IC50) in data set [2] turned out to be 2.9 nM; in data set [4], 1.6 nM.
`O=C1Cc2cc(Oc3ccc(Nc4ncnc5ccn(CCO)c45)cc3Cl)ccc2N1` displayed a 50% growth inhibitory concentration (GI50) in the data set with BT-474 of 1350 nM. Also, the half-inhibitory concentration (IC50) worked out at 960 nM in data set [2] and 28 nM in data set [4]. The inhibition result in data set [5] is “inactive”.
In the case of `O=C1Cc2cccc(Oc3ccc(Nc4ncnc5ccn(CCO)c45)cc3Cl)c2N1`, the GI50 in the data set with BT-474 amounted to 73 nM. Further, in data set [5], the inhibition result was “Active”. In data set [4], the half-inhibitory concentration (IC50) was 1.5 nM.
As to `OCCn1ccc2ncnc(Nc3ccc(Oc4cccc5[nH]ncc45)c(Cl)c3)c21`, the 50% growth inhibitory concentration (GI50) in the data set on BT-474 turned out to be 5.5 nM. The microsomal CLint at 1 µM in data set [1] came out at 123 µL/min/mg; in data set [3] it was 114 µL/min/mg. Further, the IC50 in data set [2] came out at 1.9 nM; in data set [4], 1.7 nM. Besides, the inhibition result in data set [5] is “Active”.
Consider `Cn1ncc2c(Oc3ccc(Nc4ncnc5ccn(CCO)c45)cc3Cl)cccc21`, for which the concentration for 50% growth inhibition (GI50) in the data set with BT-474 was determined as 164 nM. Moreover, the microsomal CLint at 1 µM came out at 106 µL/min/mg in data set [1] and 219 µL/min/mg in data set [3]. For the same compound, the IC50 in data set [2] is 36 nM; in data set [4], 2.1 nM. Also, the inhibition entry in data set [5] is “inactive”.
`CC(C)(C(=O)NCCn1ccc2ncnc(Nc3ccc(Oc4cccc5sncc45)c(Cl)c3)c21)S(C)(=O)=O` yielded a 50% growth inhibitory concentration (GI50) in the data set on BT-474 of 8 nM. In addition, the microsomal CLint at 1 µM in data set [1] turned out to be 76 µL/min/mg; in data set [3] it was 113 µL/min/mg. At CYP3A4, the inhibition at 0.25 h, 10 µM amounted to 49.9%. Further, the concentration for half-maximal inhibition (IC50) came to 5.5 nM in data set [2] and 2 nM in data set [4].
Regarding `OCCn1ccc2ncnc(Nc3ccc(Oc4cccc5[nH]ccc45)c(Cl)c3)c21`, in the data set on BT-474, the GI50 stood at 36 nM. Moreover, the figures for the IC50 in data set [2] and in data set [4] were 3.1 nM and 2.5 nM, respectively. In addition, the microsomal CLint at 1 µM in data set [3] turned out to be 204 µL/min/mg. Also, the inhibition entry in data set [5] was “Active”.
Consider `CC(C)(CO)C(=O)NCCn1ccc2ncnc(Nc3ccc(Oc4cccc5sncc45)c(Cl)c3)c21`, for which, in the data set with BT-474, it took 8.6 nM to inhibit growth by half (GI50). The microsomal CLint at 1 µM in data set [1] came to 88 µL/min/mg; in data set [3], 113 µL/min/mg. Also, the IC50 in data set [2] came out at 7 nM; in data set [4] it was 3.3 nM.
In turn, `CC(C)(C)NC(=O)c1cccc(Oc2ccc(Nc3ncnc4ccn(CCO)c34)cc2Cl)c1` came in with a GI50 in the data set on BT-474 of 88 nM. Also, the results for the IC50 in data set [2] and in data set [4] were 33 nM and 2.3 nM, respectively.
`O=C(NCCn1ccc2ncnc(Nc3ccc(Oc4cccc5sncc45)c(Cl)c3)c21)[C@@H]1CCCN1` gave a GI50 in the data set on BT-474 of 5.8 nM. Also, the microsomal CLint at 1 µM in data set [1] was found to be 74 µL/min/mg; in data set [3] it was 61 µL/min/mg. Also, on CYP3A4, the inhibition at 0.25 h, 10 µM stood at 35%. Moreover, the IC50 in data set [2] came to 3 nM; in data set [4], 0.92 nM.
Take `O=C1NCc2c(Oc3ccc(Nc4ncnc5ccn(CCO)c45)cc3Cl)cccc21`: the concentration for 50% growth inhibition (GI50) with BT-474 is 3360 nM. Besides, the values for the IC50 in data set [2] and in data set [4] were 890 nM and 150 nM, respectively. For the same compound, the inhibition entry in data set [5] is “inactive”.
In the data set on BT-474, `OCCn1ccc2ncnc(Nc3ccc(Oc4cccc5sccc45)c(Cl)c3)c21` gave a concentration for 50% growth inhibition (GI50) of 15 nM. Also, the microsomal CLint at 1 µM in data set [1] was determined as 24 µL/min/mg; in data set [3] it was 144 µL/min/mg. Besides, the IC50 in data set [2] is 8.8 nM; in data set [4], 6 nM. Besides, in data set [5], the inhibition result was “Active”.
In the case of `OCCn1ccc2ncnc(Nc3ccc(Oc4cccc5sncc45)c(Cl)c3)c21`, in the data set on BT-474, growth was halved (GI50) at 3.6 nM. The values for the microsomal CLint at 1 µM in data set [1] and in data set [3] were 142 µL/min/mg and 129 µL/min/mg, respectively. The same compound returned an inhibition at 0.25 h, 10 µM against CYP3A4 of 47.2%. Besides, the half-inhibitory concentration (IC50) in data set [2] amounted to 4.1 nM; in data set [4], 2.1 nM. The inhibition result in data set [5] was “Active”.
In turn, `O=C1Cc2ccc(Oc3ccc(Nc4ncnc5ccn(CCO)c45)cc3Cl)cc2N1` returned a GI50 in the data set on BT-474 of 1880 nM. In addition, the figures for the half-inhibitory concentration (IC50) in data set [2] and in data set [4] were 2300 nM and 130 nM, respectively. In addition, the inhibition entry in data set [5] was “inactive”.
Consider `OCCn1ccc2ncnc(Nc3ccc(Oc4cccc(C(F)(F)F)c4)c(Cl)c3)c21`, for which the IC50 in data set [2] is 34 nM.
Turning to `CC(C)(C)C(=O)NCCn1ccc2ncnc(Nc3ccc(Oc4cccc5sncc45)c(Cl)c3)c21`, in the data set on BT-474, the GI50 stood at 9.2 nM. In addition, the microsomal CLint at 1 µM came to 108 µL/min/mg in data set [1] and 94 µL/min/mg in data set [3]. Besides, the inhibition at 0.25 h, 10 µM against CYP3A4 worked out at 33.5%. In addition, the concentration for half-maximal inhibition (IC50) in data set [2] was 21 nM; in data set [4], 6.1 nM.
With `O=C1NCc2cccc(Oc3ccc(Nc4ncnc5ccn(CCO)c45)cc3Cl)c21`, it took 768 nM to inhibit growth in the data set with BT-474 by half (GI50). In addition, the values for the half-inhibitory concentration (IC50) in data set [2] and in data set [4] were 21 nM and 2.5 nM, respectively. Besides, the inhibition result in data set [5] was “inactive”.
For `O=C1NCc2cc(Oc3ccc(Nc4ncnc5ccn(CCO)c45)cc3Cl)ccc21` the same measures were 4080 nM, 510 nM, 18 nM and “inactive”.

For the origin of these results see ChEMBL document CHEMBL2046372, “Design and synthesis of pyrrolo[3,2-d]pyrimidine human epidermal growth factor receptor 2 (HER2)/epidermal growth factor receptor (EGFR) dual inhibitors: exploration of novel back-pocket binders” (J Med Chem, 2012).
